We go through eleven compounds from ChEMBL document CHEMBL1201862, “PubChem BioAssay data set” (2004).

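Cells were grown in 96-well plates and exposed to each compound for 48 hours at five concentrations; endpoints were interpolated linearly between bracketing concentrations, or set to the highest concentration if not reached. The concentration for 50% growth inhibition is given as GI50.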 Active and inactive are the calls of the source. Cut-off read from the data, not from the text of the source: active = GI50 up to about 1.1 µM and inactive = higher.

Some test systems named below: MDA-N; NCI/ADR-RES; SK-MEL-5; SF-268; SK-MEL-28; ACHN; COLO 205; BT-549; Hs-578T; SNB-19; UO-31; U-251; SN12C; SK-MEL-2; HCT-116; SF-539; Malme-3M; UACC-62; HCC 2998; NCI-H226.
Common to all, as to assay: NCI-60 cell line screen, 48 h

With `COc1cc2c3c(n(C)c(=O)c2cc1OC)-c1cc2c(cc1/C3=C\CCCCCBr)OCO2`, the GI50 is 34.8 µM (inactive) in the assay with MDA-N; 32.4 µM (inactive) in the assay with NCI/ADR-RES; 4.07 µM (inactive) in the assay with SK-MEL-5; 4.31 µM (inactive) in the assay on SF-268; 0.115 µM (active) with SK-MEL-28; 4.39 µM (inactive) in the assay with ACHN. The GI50 was 47.3 µM (inactive) with COLO 205; 93.1 µM (inactive) with BT-549; > 100 µM (inactive) with Hs-578T; 6.5 µM (inactive) in the assay with SNB-19; 4.66 µM (inactive) in the assay with UO-31; 3.51 µM (inactive) with U-251. In addition, the GI50 with SN12C is 5.96 µM (inactive); in the assay with SK-MEL-2, 32.2 µM (inactive).

For `COc1ccc(OC)c([N+](=O)[O-])c1-c1nc2sc(C)cn2c1/C=N/N=C(N)N`, the GI50 with HCT-116 was 39.5 µM (inactive); with SF-539 it was 38.4 µM (inactive); with NCI/ADR-RES it was > 100 µM (inactive); in the assay with SK-MEL-5 it was 18.7 µM (inactive); with SF-268 it was 27.6 µM (inactive); in the assay with SK-MEL-28, 21.4 µM (inactive). Also, the GI50 in the assay with Malme-3M was 19.1 µM (inactive); with ACHN, 41 µM (inactive); with UACC-62, 22.7 µM (inactive); with HCC 2998, 20.6 µM (inactive); in the assay with BT-549 it was 15.2 µM (inactive); in the assay with NCI-H226, 36.1 µM (inactive). Moreover, the GI50 with Hs-578T is 31 µM (inactive); with UO-31, > 100 µM (inactive); in the assay with U-251, 31.6 µM (inactive); with SN12C, 23.4 µM (inactive); with SK-MEL-2, 21.5 µM (inactive).

For the compound `O=[N+]([O-])C(C(Cl)=C(Cl)Cl)=C(n1cncn1)n1cncn1`, the GI50 was 16.1 µM (inactive) with HCT-116; 19 µM (inactive) with SF-539; 25.1 µM (inactive) in the assay on NCI/ADR-RES; 11.9 µM (inactive) in the assay on SK-MEL-5; 17.1 µM (inactive) in the assay on SF-268; 32.6 µM (inactive) in the assay on SK-MEL-28. For the same compound, the GI50 in the assay with Malme-3M was 16.4 µM (inactive); with ACHN it was 19.3 µM (inactive); with UACC-62, 39.9 µM (inactive); in the assay on COLO 205, 13.7 µM (inactive); with HCC 2998, > 58.3 µM (inactive); with BT-549, 18.7 µM (inactive). Besides, the GI50 with NCI-H226 is > 100 µM (inactive); in the assay with Hs-578T, 27 µM (inactive); with SNB-19, > 100 µM (inactive); in the assay on UO-31, 18.5 µM (inactive); in the assay on U-251, 34.6 µM (inactive); with SN12C, 12.4 µM (inactive). The GI50 with SK-MEL-2 is > 100 µM (inactive).

For `Cc1cn(C(Cc2ccccc2)OCCO)c(=O)[nH]c1=O` (stereo not drawn), the GI50 in the assay with MDA-N, in the assay with HCT-116, in the assay on SF-539, with NCI/ADR-RES, in the assay with SK-MEL-5 and with SK-MEL-28 was > 100 µM (inactive) in each case. Further, the GI50 with ACHN, in the assay on UACC-62, in the assay on COLO 205, in the assay with HCC 2998, in the assay on BT-549 and in the assay on NCI-H226 was > 100 µM (inactive) in each case. For the same compound, the GI50 in the assay on SNB-19, in the assay with UO-31, with U-251, in the assay on SN12C and in the assay with SK-MEL-2 was > 100 µM (inactive) throughout.

`CC[C@]1(Cc2ccc(OC)c(OC)c2)C=[N+]([O-])O[C@H](OC2CCCCC2c2ccccc2)[C@@H]1OC(C)=O` (stereo partly drawn): the GI50 in the assay on MDA-N was 53.5 µM (inactive); in the assay on HCT-116 it was 34.1 µM (inactive); in the assay with NCI/ADR-RES, 41.8 µM (inactive); with SK-MEL-5, 38.1 µM (inactive); in the assay with SK-MEL-28, 61.7 µM (inactive); in the assay with Malme-3M, 52.8 µM (inactive). The GI50 with ACHN is 30.5 µM (inactive); with UACC-62, 56.1 µM (inactive); with COLO 205, 19.9 µM (inactive); in the assay on HCC 2998, 43.5 µM (inactive); in the assay with BT-549 it was 70.8 µM (inactive); in the assay on NCI-H226, 32.5 µM (inactive). The GI50 is 92.5 µM (inactive) with SNB-19; 41.2 µM (inactive) in the assay with UO-31; 46.6 µM (inactive) in the assay on U-251; 36.6 µM (inactive) in the assay with SN12C; 46.1 µM (inactive) in the assay on SK-MEL-2.

For `Cc1[nH]c2ccccc2c1C1=CC(=O)N(c2ccccc2)C1=O`, the GI50 in the assay with HCT-116 was 8.75 µM (inactive); with SF-539, 10.8 µM (inactive); in the assay with NCI/ADR-RES, 20.2 µM (inactive); in the assay with SK-MEL-5, 8 µM (inactive); in the assay on SF-268 it was 15.8 µM (inactive); with SK-MEL-28, 6.46 µM (inactive). Besides, the GI50 in the assay on Malme-3M is 13.9 µM (inactive); with ACHN, 23.2 µM (inactive); in the assay with UACC-62, 9.82 µM (inactive); with COLO 205, 17.7 µM (inactive); in the assay on HCC 2998, 1.75 µM (inactive); in the assay on BT-549 it was 5.31 µM (inactive). Also, the GI50 is 19 µM (inactive) with NCI-H226; 8.22 µM (inactive) in the assay on Hs-578T; 22.1 µM (inactive) with SNB-19; 19 µM (inactive) with UO-31; 17.3 µM (inactive) with U-251; 13.8 µM (inactive) in the assay with SN12C. In addition, the GI50 with SK-MEL-2 was 13.6 µM (inactive).

In the case of `CCOC(=O)NNC(=O)C1CSC(c2ccccc2)N1C(C)=O` (stereo not drawn), the GI50 in the assay with HCT-116, in the assay on SF-539, with NCI/ADR-RES, in the assay with SK-MEL-5, with SF-268 and with Malme-3M was > 100 µM (inactive) in each case. Moreover, the GI50 with ACHN, in the assay on UACC-62, with COLO 205, with HCC 2998, in the assay with BT-549 and in the assay on NCI-H226 was > 100 µM (inactive) throughout. Further, the GI50 in the assay with Hs-578T, with SNB-19, in the assay on UO-31, with U-251, in the assay on SN12C and in the assay on SK-MEL-2 was > 100 µM (inactive) throughout.

Consider `OCC1C2CCC3(OCCO3)C12` (stereo not drawn), for which the GI50 in the assay with MDA-N, in the assay on HCT-116, in the assay on SF-539, in the assay with NCI/ADR-RES, in the assay on SK-MEL-5 and with SF-268 was > 100 µM (inactive) in each case. The GI50 in the assay with SK-MEL-28 was > 100 µM (inactive); in the assay on Malme-3M, 57.3 µM (inactive); with ACHN, > 100 µM (inactive); in the assay on UACC-62, 17.6 µM (inactive); in the assay with COLO 205 it was > 100 µM (inactive); with HCC 2998 it was > 100 µM (inactive). Also, the GI50 was 20.6 µM (inactive) in the assay with BT-549; > 100 µM (inactive) in the assay with NCI-H226; > 100 µM (inactive) with SNB-19; 15.4 µM (inactive) in the assay on UO-31; > 100 µM (inactive) with U-251; > 100 µM (inactive) in the assay with SN12C. Moreover, the GI50 in the assay on SK-MEL-2 is > 100 µM (inactive).

As for `O=[N+]([O-])c1ccc(C2Nn3c(nnc3-c3cccc([N+](=O)[O-])c3)S2)cc1` (stereo not drawn), the GI50 with HCT-116 is 67.6 µM (inactive); with SF-539, 9.08 µM (inactive); with NCI/ADR-RES, > 100 µM (inactive); in the assay with SK-MEL-5, 53.6 µM (inactive); with SF-268, > 100 µM (inactive); in the assay on Malme-3M, > 100 µM (inactive). In addition, the GI50 in the assay on ACHN is > 100 µM (inactive); with UACC-62 it was > 100 µM (inactive); with COLO 205, > 100 µM (inactive); in the assay on HCC 2998, > 100 µM (inactive); in the assay on BT-549 it was > 100 µM (inactive); in the assay with NCI-H226 it was 0.0735 µM (active). Moreover, the GI50 with Hs-578T is > 100 µM (inactive); with SNB-19, > 100 µM (inactive); in the assay with UO-31, > 100 µM (inactive); in the assay on U-251 it was > 100 µM (inactive); in the assay on SN12C, > 100 µM (inactive); in the assay with SK-MEL-2 it was 66.7 µM (inactive).

Consider `COC(=O)C1CCC(=O)N1C(c1ccccc1)c1cc(OC)c(OC)c(OC)c1` (stereo not drawn), for which the GI50 in the assay on MDA-N was 21.8 µM (inactive); with HCT-116 it was 50 µM (inactive); with SF-539, 69.5 µM (inactive); in the assay on NCI/ADR-RES, 76 µM (inactive); in the assay with SF-268 it was > 100 µM (inactive); with SK-MEL-28, 99.8 µM (inactive). Also, the GI50 in the assay with Malme-3M is 61.1 µM (inactive); with ACHN it was > 100 µM (inactive); with UACC-62, 60.5 µM (inactive); with COLO 205, 45.5 µM (inactive); with HCC 2998, > 100 µM (inactive); with BT-549 it was 92.7 µM (inactive). For the same compound, the GI50 was > 100 µM (inactive) in the assay on NCI-H226; 76.4 µM (inactive) in the assay with SNB-19; 55.1 µM (inactive) with UO-31; 80.4 µM (inactive) in the assay on U-251; 80.5 µM (inactive) with SN12C.

On to `CC(=O)O[C@@]12CO[C@@H]1CC(O)[C@@]1(C)C(=O)[C@H](O)C3=C(C)C(O)C[C@@](O)(C(OC(=O)c4ccccc4)C12)C3(C)C` (stereo partly drawn), for which the GI50 in the assay with HCT-116 is 0.371 µM (active); in the assay with SF-539, 0.415 µM (active); in the assay with NCI/ADR-RES, > 100 µM (inactive); in the assay on SK-MEL-5, 6.58 µM (inactive); with SF-268, 3.97 µM (inactive); in the assay with Malme-3M, 2.54 µM (inactive). Moreover, the GI50 is 51.2 µM (inactive) in the assay on ACHN; 0.508 µM (active) with UACC-62; 0.434 µM (active) in the assay with COLO 205; 1.72 µM (inactive) in the assay on HCC 2998; 1.26 µM (inactive) in the assay with BT-549; > 100 µM (inactive) with NCI-H226. Also, the GI50 is 0.252 µM (active) in the assay on Hs-578T; 3.3 µM (inactive) in the assay on SNB-19; 46.1 µM (inactive) in the assay on UO-31; 0.828 µM (active) in the assay with U-251; 2.18 µM (inactive) in the assay with SN12C; 0.367 µM (active) in the assay on SK-MEL-2.
